The target in one assay is T1, EGFR L858R (Homo sapiens, UniProt P00533, L858R).
T1 construct: purchased Carna Bio
The experiment in a line: Inhibition of EGFR L858R biochemical enzymatic activity (HTRF). The following applies: 1 mM ATP, 1 h at room temperature, read-out: IC50 @L858R. Summed up: (§1)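 In a buffer with 5 mM MgCl2, 1 mM MnCl2, 1 mM DTT and 0.01% CHAPS, enzyme turnover of 1 μM biotinylated TK substrate at 1 mM ATP is followed by HTRF after 1 h at room temperature. IC50 is obtained by a four-parameter fit.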
On the technique in general: Time-resolved FRET reads energy transfer from a long-lived donor to a nearby acceptor.

The target in the next assay is T2, EGFR wild type (Homo sapiens, UniProt P00533).
T2 construct: purchased Carna Bio
The experiment in a line: Inhibition of EGFR wild type biochemical enzymatic activity (HTRF). The following applies: EGFR wild type, 1 mM ATP, 1 h at room temperature, read-out: IC50 @WT. Summed up: as §1

A further assay concerns PC-9. The assay is described as follows: Cell proliferation assay, PC-9 cells (CellTiter-Glo, 72 hours). It is filed as cell-based. The settings on record: PC9 cells, read-out: GI50 PC9. Summed up:
(§2)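 GI50 is the concentration giving 50% proliferation inhibition. Growth for this was normalised to a baseline viability reading taken when compound was added, and to DMSO wells. PC-9 (500 cells/well) and mutant-EGFR Ba/F3 (5000 cells/well) are treated after overnight seeding in RPMI1640-based medium.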
(In general: ATP-based viability assays read luminescence as a measure of living cells.)

The target in a further assay is T3, EGFR[T790M/C797S/L858R] (Homo sapiens, UniProt P00533, C797S/L858R/T790M).
T3 construct: purchased Carna Bio
The experiment in a line: Inhibition of EGFR[T790M/C797S/L858R] biochemical enzymatic activity (HTRF). The settings on record: EGFR[T790M/C797S/L858R], 1 mM ATP, 1 h at room temperature, read-out: IC50 @T790M- C797S - L858R. Summed up:
as §1

In assay [1] the target is T4, EGFR[T790M/C797S/d746-750] (Homo sapiens, UniProt P00533, C797S/DEL746-750/T790M).
T4 construct: purchased Carna Bio
The assay is described as follows: Inhibition of EGFR[T790M/C797S/d746-750] biochemical enzymatic activity (HTRF). The following applies: EGFR[T790M/C797S/d746-750], 1 mM ATP, 1 h at room temperature, read-out: IC50 @T790M - C797S - Del19. Summed up: as §1

For another assay, the target named is T5, EGFR (d746-750 C797S) (Homo sapiens, UniProt P00533, C797S/DEL746-750).
T5 construct: purchased signalchem
The experiment in a line: Inhibition of EGFR (d746-750 C797S) biochemical enzymatic activity (HTRF). The settings on record: EGFR (d746-750 C797S), 1 mM ATP, 1 h at room temperature, read-out: IC50 @Del19-C797S. Summed up:
as §1

For another assay, the target named is T6, EGFR (C797S L858R) (Homo sapiens, UniProt P00533, C797S/L858R).
T6 construct: purchased signalchem
The assay is described as follows: Inhibition of EGFR (C797S L858R) biochemical enzymatic activity (HTRF). The following applies: EGFR (C797S L858R), 1 mM ATP, 1 h at room temperature, read-out: IC50 @L858-C797S. Summed up: as §1

In assay [2] the test system is Ba/F3 cells expressing EGFR mutations. The experiment in a line: Cell proliferation assay, Ba/F3 cells expressing EGFR mutations (CellTiter-Glo, 72 hours). The class given is cell-based. Summed up: as §2
For the next assay, the target named is T7, EGFR Exon19Del (Homo sapiens, UniProt P00533, DEL746-750).
T7 construct: purchased Carna Bio
The experiment in a line: Inhibition of EGFR Exon19Del biochemical enzymatic activity (HTRF). The following applies: EGFR Exon19Del, 1 mM ATP, 1 h at room temperature, read-out: IC50 @Del19. Summed up:
as §1

For the next assay, the target named is T8, EGFR Exon19Del/T790M (Homo sapiens, UniProt P00533, DEL746-750/T790M).
T8 construct: purchased Carna Bio
The assay is described as follows: Inhibition of EGFR Exon19Del/T790M biochemical enzymatic activity (HTRF). The settings on record: EGFR Exon19Del/T790M, 1 mM ATP, 1 h at room temperature, read-out: IC50 @Del19-T790M. Summed up:
as §1

The next assay addresses T9, EGFR L858R/T790M (Homo sapiens, UniProt P00533, L858R/T790M).
T9 construct: purchased Carna Bio
The experiment in a line: Inhibition of EGFR L858R/T790M biochemical enzymatic activity (HTRF). The following applies: EGFR L858R/T790M, 1 mM ATP, 1 h at room temperature, read-out: IC50 @L858R-T790M. Summed up: as §1

[3] abbreviates: BaF3 cells, EGFR DEL19 - C797S, read-out: GI50 DEL19 - C797S/BaF3.
The mark [4] stands for this setting: BaF3 cells, EGFR DEL19 - T790-C797S, read-out: GI50 DEL19 - T790-C797S/BaF3.
Where [5] appears, read: BaF3 cells, EGFR L858R - C797S, read-out: GI50 L858R - C797S/BaF3.
[6] abbreviates: BaF3 cells, EGFR L858R - T790-C797S, read-out: GI50 L858R - T790-C797S/BaF3.
Where [7] appears, read: BaF3 cells, EGFR L858R - T790M, read-out: GI50 L858R - T790M/BaF3.
The mark [8] stands for this setting: BaF3 cells, EGFR L858R, read-out: GI50 L858R/BaF3.
The mark [9] stands for this setting: EGFR DEL19 - T790M, read-out: GI50 DEL19 - T790M.

Like-named read-outs stand apart in the source and are kept apart here. Where only a bound is given, the exact number is not on record here.

As a reminder, the IC50 is the concentration that gives 50% inhibition.

T3 sequence (P00533 25-1210 T790M/C797S/L858R): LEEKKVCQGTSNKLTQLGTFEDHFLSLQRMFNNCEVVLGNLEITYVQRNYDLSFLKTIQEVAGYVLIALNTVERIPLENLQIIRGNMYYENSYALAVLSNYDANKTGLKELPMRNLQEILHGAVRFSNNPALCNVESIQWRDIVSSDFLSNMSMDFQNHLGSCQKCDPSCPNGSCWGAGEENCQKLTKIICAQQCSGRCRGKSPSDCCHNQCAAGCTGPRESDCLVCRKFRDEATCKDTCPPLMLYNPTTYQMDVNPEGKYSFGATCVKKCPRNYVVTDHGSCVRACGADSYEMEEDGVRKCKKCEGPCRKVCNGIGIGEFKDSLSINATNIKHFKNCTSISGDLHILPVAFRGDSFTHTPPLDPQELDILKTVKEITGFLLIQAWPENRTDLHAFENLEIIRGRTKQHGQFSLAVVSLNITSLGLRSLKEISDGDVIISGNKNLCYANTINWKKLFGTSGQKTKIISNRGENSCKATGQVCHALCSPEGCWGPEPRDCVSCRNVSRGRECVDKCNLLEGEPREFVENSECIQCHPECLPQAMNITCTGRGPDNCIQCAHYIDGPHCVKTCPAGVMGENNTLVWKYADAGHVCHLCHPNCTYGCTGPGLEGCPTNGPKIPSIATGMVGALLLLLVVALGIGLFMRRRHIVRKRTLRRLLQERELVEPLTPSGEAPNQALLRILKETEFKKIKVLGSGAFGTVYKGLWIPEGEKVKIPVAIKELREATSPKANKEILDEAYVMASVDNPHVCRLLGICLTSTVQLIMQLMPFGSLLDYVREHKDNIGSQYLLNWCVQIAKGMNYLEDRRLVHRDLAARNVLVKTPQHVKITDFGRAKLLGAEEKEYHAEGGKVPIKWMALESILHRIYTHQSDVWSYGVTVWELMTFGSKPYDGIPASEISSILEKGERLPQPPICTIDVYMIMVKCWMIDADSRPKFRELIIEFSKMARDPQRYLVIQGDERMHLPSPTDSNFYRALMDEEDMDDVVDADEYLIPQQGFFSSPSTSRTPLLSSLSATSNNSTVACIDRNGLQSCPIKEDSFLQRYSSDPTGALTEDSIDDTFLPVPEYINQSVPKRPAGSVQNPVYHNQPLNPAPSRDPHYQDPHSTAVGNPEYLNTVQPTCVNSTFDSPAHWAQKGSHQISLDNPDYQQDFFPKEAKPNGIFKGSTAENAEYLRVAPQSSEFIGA
T5 sequence (P00533 with tags, fused parts or gaps DEL746-750/C797S limits assumed): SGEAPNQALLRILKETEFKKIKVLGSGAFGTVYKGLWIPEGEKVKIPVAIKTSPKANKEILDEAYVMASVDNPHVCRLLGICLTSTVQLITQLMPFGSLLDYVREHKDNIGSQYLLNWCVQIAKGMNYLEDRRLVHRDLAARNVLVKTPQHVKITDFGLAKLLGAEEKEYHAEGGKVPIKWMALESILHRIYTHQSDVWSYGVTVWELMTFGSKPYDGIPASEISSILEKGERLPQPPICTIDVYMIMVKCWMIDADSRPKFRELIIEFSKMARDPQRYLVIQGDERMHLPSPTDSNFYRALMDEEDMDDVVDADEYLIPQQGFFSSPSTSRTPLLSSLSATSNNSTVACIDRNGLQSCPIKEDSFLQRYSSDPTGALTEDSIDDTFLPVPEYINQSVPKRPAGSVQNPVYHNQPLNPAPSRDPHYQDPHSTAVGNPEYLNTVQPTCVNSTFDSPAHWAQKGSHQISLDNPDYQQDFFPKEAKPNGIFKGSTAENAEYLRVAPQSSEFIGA
T4 sequence (P00533 with tags, fused parts or gaps DEL746-750/T790M/C797S limits assumed): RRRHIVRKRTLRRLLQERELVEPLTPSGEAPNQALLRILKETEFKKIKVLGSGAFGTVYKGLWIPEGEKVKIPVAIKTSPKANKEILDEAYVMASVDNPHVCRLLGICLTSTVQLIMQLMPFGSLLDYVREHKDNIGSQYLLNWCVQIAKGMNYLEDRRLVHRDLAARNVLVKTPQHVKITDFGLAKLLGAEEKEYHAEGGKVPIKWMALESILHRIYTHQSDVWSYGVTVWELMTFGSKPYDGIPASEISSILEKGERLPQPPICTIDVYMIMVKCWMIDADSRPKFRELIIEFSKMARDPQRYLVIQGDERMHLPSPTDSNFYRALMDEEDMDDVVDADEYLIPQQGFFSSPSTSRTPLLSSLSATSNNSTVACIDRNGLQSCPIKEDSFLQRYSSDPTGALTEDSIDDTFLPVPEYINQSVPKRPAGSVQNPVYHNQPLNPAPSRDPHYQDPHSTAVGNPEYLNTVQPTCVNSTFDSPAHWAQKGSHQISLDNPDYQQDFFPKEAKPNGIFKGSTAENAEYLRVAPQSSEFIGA
T1 sequence (P00533 25-1210 L858R): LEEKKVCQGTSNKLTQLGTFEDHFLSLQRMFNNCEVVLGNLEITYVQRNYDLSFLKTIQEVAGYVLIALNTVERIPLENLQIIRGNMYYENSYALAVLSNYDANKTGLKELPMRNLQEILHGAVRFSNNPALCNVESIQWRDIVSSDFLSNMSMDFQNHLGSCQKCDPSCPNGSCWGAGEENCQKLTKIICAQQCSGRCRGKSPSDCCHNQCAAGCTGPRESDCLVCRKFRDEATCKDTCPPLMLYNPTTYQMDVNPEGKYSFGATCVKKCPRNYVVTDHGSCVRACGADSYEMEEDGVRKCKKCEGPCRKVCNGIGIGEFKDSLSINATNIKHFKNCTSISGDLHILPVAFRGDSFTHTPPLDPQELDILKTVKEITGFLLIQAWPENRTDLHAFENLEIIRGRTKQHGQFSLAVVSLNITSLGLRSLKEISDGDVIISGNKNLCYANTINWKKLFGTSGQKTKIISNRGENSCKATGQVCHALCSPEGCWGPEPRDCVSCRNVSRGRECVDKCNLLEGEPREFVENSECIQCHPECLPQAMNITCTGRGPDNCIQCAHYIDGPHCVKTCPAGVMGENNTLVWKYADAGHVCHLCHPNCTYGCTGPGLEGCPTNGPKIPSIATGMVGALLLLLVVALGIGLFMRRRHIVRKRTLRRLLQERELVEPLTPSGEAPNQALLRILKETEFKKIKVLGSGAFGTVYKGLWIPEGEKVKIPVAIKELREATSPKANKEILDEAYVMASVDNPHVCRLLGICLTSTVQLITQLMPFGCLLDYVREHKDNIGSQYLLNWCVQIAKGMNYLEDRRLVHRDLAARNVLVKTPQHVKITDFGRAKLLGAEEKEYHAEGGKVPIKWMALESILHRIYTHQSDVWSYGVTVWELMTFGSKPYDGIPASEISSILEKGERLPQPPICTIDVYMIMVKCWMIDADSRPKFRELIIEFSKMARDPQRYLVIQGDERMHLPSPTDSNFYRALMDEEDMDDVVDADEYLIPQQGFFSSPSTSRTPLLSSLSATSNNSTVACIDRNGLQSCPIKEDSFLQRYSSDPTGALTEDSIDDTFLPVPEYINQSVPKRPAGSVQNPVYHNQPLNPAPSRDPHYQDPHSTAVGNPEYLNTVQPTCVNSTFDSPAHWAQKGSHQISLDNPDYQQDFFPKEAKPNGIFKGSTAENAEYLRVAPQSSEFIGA
T9 sequence (P00533 25-1210 T790M/L858R): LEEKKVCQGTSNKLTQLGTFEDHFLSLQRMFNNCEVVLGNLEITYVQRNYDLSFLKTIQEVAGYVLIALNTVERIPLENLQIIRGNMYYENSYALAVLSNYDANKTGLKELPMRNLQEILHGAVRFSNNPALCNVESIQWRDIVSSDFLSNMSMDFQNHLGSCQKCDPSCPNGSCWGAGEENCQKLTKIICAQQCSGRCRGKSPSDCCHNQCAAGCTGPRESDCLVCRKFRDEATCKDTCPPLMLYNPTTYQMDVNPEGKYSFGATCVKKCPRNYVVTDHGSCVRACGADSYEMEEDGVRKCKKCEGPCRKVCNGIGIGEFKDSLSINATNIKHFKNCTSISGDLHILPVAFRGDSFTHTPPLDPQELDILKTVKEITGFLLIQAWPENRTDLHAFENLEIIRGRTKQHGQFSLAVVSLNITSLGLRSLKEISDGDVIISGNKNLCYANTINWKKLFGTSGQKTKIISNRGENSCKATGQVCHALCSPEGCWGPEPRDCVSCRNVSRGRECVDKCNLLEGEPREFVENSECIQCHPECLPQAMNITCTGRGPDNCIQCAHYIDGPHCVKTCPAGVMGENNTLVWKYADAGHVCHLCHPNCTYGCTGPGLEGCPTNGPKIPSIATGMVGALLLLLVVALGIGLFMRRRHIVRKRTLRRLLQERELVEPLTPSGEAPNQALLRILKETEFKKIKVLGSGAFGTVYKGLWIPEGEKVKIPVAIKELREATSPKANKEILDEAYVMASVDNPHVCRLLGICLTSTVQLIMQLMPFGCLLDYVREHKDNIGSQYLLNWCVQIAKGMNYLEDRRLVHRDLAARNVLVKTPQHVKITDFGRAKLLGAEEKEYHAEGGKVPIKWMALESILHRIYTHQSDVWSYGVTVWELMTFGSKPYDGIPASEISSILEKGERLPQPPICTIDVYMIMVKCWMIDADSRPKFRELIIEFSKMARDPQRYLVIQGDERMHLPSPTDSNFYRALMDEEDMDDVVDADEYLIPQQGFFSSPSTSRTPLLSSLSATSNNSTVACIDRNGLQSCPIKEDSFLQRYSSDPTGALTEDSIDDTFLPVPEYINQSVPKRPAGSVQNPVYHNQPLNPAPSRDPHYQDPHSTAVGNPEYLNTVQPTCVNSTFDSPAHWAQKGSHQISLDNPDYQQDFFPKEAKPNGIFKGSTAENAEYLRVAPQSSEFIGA

Consider `Cc1cc2cc(n1)-c1cnn(C)c1OCCN1CC3CCC(CC3)(C1)n1c(nc3ccc(N4CC[C@@H](N(C)C)C4)cc31)NC2=O` [Example B29], for which the IC50 at EGFR L858R is 352 nM; at EGFR wild type, above 5000 nM; at EGFR[T790M/C797S/L858R] it was 13 nM; in assay [1], 8.6 nM; at EGFR (d746-750 C797S), 28 nM; at EGFR (C797S L858R), 204 nM. The IC50 was 45 nM at EGFR Exon19Del, 17 nM at EGFR Exon19Del/T790M and 28 nM at EGFR L858R/T790M. Besides, the GI50 with PC-9 (Homo sapiens, PC-9, 72 h) was 155 nM; in assay [2] (Mus musculus, BaF3, 72 h, BaF3 cells, EGFR DEL19 - C797S, read-out: GI50 DEL19 - C797S/BaF3) it was 26 nM; in assay [2] (Mus musculus, BaF3, 72 h, BaF3 cells, EGFR DEL19 - T790-C797S, read-out: GI50 DEL19 - T790-C797S/BaF3), 9 nM; in assay [2] (Mus musculus, BaF3, 72 h, BaF3 cells, EGFR L858R - C797S, read-out: GI50 L858R - C797S/BaF3), 171 nM; in assay [2] (Mus musculus, BaF3, 72 h, BaF3 cells, EGFR L858R - T790-C797S, read-out: GI50 L858R - T790-C797S/BaF3) it was 19 nM; in [2] (Mus musculus, BaF3, 72 h, BaF3 cells, EGFR L858R - T790M, read-out: GI50 L858R - T790M/BaF3) it was 37 nM. The GI50 was 149 nM in [2] (Mus musculus, BaF3, 72 h, BaF3 cells, EGFR L858R, read-out: GI50 L858R/BaF3) and 11 nM in [2] (Mus musculus, BaF3, 72 h, EGFR DEL19 - T790M, read-out: GI50 DEL19 - T790M).

In the case of `Cc1cc2cc(n1)-c1cnn(C)c1OCCN1CC3CCC(C3)(C1)n1c(nc3ccc(N4CCC5(CN(C)C5)C4)cc31)NC2=O` (single isomer, unassigned) [Example B50A], the 50% inhibitory concentration (IC50) on EGFR L858R is above 5000 nM; on EGFR wild type, above 5000 nM; at EGFR[T790M/C797S/L858R], above 5000 nM; in [1], 748 nM; at EGFR (d746-750 C797S), above 5000 nM; on EGFR (C797S L858R), above 5000 nM. Moreover, the 50% inhibitory concentration (IC50) at EGFR Exon19Del was above 5000 nM; at EGFR Exon19Del/T790M, 2290 nM; on EGFR L858R/T790M, above 5000 nM. Also, the GI50 is 1550 nM with PC-9; 302 nM in assay [2] (setting [3]); 437 nM in assay [2] (setting [4]); 741 nM in [2] (setting [5]); 52 nM in [2] (setting [6]); 320 nM in assay [2] (setting [7]). Moreover, the GI50 in assay [2] (setting [8]) stood at 1280 nM; in [2] (setting [9]), 377 nM.

For `Cc1cc2cc(n1)-c1cnn(C)c1OCCN1CCOCC(C1)n1c(nc3ccccc31)NC2=O` (stereo not shown) [Example B7B, 15,21-dimethyl-23,29-dioxa-2,9,11,16,20,21,26-heptaazahexacyclo[24.4.1.1^{13,17}.0^{2,10}.0^{3,8}.0^{18,22}]dotriaconta-3,5,7,9,13(32),14,16,18(22),19-nonaen-12-one], the 50% inhibitory concentration (IC50) at EGFR L858R is above 5000 nM; at EGFR wild type, above 5000 nM; at EGFR[T790M/C797S/L858R], 529 nM; in [1], 17 nM; at EGFR (d746-750 C797S), 322 nM; on EGFR (C797S L858R), 4430 nM. Besides, the IC50 stood at 864 nM on EGFR Exon19Del, 42 nM at EGFR Exon19Del/T790M and 909 nM on EGFR L858R/T790M. The GI50 in the assay with PC-9 worked out at 469 nM; in assay [2] (setting [3]), 173 nM; in assay [2] (setting [4]), 130 nM; in [2] (setting [5]) it was 253 nM; in assay [2] (setting [6]) it was 123 nM; in assay [2] (setting [7]), 292 nM. For the same compound, the values for the GI50 in assay [2] (setting [8]) and in [2] (setting [9]) were 1600 nM and 189 nM, respectively.

On to `Cc1cc2cc(n1)-c1cnn(C)c1OCCN1CC3CCC(C3)(C1)n1c(nc3ccc(N4CCC(N5CCOCC5)C4)cc31)NC2=O` (single isomer, unassigned) [Example B44A1], for which the concentration for half-maximal inhibition (IC50) at EGFR L858R was above 5000 nM; at EGFR wild type it was above 5000 nM; on EGFR[T790M/C797S/L858R] it was above 5000 nM; in assay [1], 4530 nM; on EGFR (d746-750 C797S), above 5000 nM; at EGFR (C797S L858R) it was above 5000 nM. The IC50 at EGFR Exon19Del, at EGFR Exon19Del/T790M and on EGFR L858R/T790M was above 5000 nM throughout. In addition, the GI50 turned out to be 2300 nM in the assay on PC-9; 470 nM in assay [2] (setting [3]); 454 nM in assay [2] (setting [4]); 850 nM in assay [2] (setting [5]); 114 nM in [2] (setting [6]); 392 nM in [2] (setting [7]). Also, the GI50 worked out at 3200 nM in assay [2] (setting [8]) and 1210 nM in assay [2] (setting [9]).

Turning to `Cc1cc2cc(n1)-c1cnn(C)c1OCCN1CC3CCC(C3)(C1)n1c(nc3ccc(N4CCC(N5CCN(C)CC5)CC4)cc31)NC2=O` (single isomer, unassigned) [Example B59B], the IC50 at EGFR L858R was 27 nM; on EGFR wild type it was 360 nM; at EGFR[T790M/C797S/L858R], 4.4 nM; in assay [1] it was 6.1 nM; on EGFR (d746-750 C797S), 5 nM; at EGFR (C797S L858R), 9.5 nM. Further, the IC50 at EGFR Exon19Del was 12 nM; on EGFR Exon19Del/T790M it was 10 nM; at EGFR L858R/T790M it was 7.7 nM. Besides, the GI50 with PC-9 was 32 nM; in assay [2] (setting [3]), 11 nM; in assay [2] (setting [4]), 12 nM; in assay [2] (setting [5]), 27 nM; in assay [2] (setting [6]), 3 nM; in [2] (setting [7]), 11 nM. Moreover, the GI50 in assay [2] (setting [8]) came out at 36 nM; in assay [2] (setting [9]), 13 nM.

These data come from patent US20260365670A1, “EGFR INHIBITORS AND USES THEREOF” (DIZAL (JIANGSU) PHARMACEUTICAL CO., LTD., priority 2022, published 2026).
